Reference: ChEMBL document CHEMBL5154649, “Design, synthesis, and characterization of novel aminoalcohol quinolines with strong in vitro antimalarial activity” (Eur J Med Chem, 2022)
pIC50: −log10 of the molar value.

Assays:
Plasmodium falciparum [1] = assay: Antiplasmodial activity against CQ-susceptible Plasmodium falciparum 3D7 infected in human erythrocytes assessed as inhibition of parasite growth measured after 72 hrs by HRP2-ELISA; assay type: functional, organism-based; details: 3D7, Erythrocyte
Plasmodium falciparum [2] = assay: Antiplasmodial activity against CQ-resistant Plasmodium falciparum W2 assessed as inhibition of parasite growth measured after 48 hrs by SYBR Green 1 dye based fluorescence assay; assay type: functional, organism-based; details: W2, 48 h
[3] = Selectivity index, ratio of IC50 for cytotoxicity against chinese hamster CHO cells to IC50 for antiplasmodial activity against Plasmodium falciparum 3D7 infected in human erythrocytes by HRP2-ELISA; assay type: toxicity, cell-based; details: read-out: Ratio IC50
[4] = Selectivity index, ratio of IC50 for cytotoxicity against human THP-1 cells to IC50 for antiplasmodial activity against Plasmodium falciparum 3D7 infected in human erythrocytes by HRP2-ELISA; assay type: toxicity, cell-based; details: read-out: Ratio IC50
[5] = Cytotoxicity against Chinese hamster CHO cells assessed as reduction in cell viability incubated for 24 hrs by MTT assay; assay type: toxicity, cell-based, Cricetulus griseus
Plasmodium falciparum [6] = assay: Selectivity index, ratio of IC50 for antiplasmodial activity against CQ-susceptible Plasmodium falciparum 3D7 to IC50 for antiplasmodial activity against CQ-resistant Plasmodium falciparum W2 by SYBR Green 1 dye based fluorescence assay; assay type: functional
[7] = Cytotoxicity against human HFF cells assessed as reduction in cell viability incubated for 72 hrs by MTT assay; assay type: toxicity, cell-based
Plasmodium falciparum [8] = assay: Antiplasmodial activity CQ-resistant Plasmodium falciparum W2 infected in human erythrocytes assessed as inhibition of parasite growth measured after 72 hrs by HRP2-ELISA; assay type: functional, organism-based; details: W2, Erythrocyte
[9] = Cytotoxicity against human HepG2 cells assessed as reduction in cell viability incubated for 72 hrs by MTT assay; assay type: toxicity, cell-based
Plasmodium falciparum [10] = assay: Selectivity index, ratio of IC50 for antiplasmodial activity against CQ-susceptible Plasmodium falciparum 3D7 to IC50 for antiplasmodial activity CQ-resistant Plasmodium falciparum W2 by HRP2-ELISA; assay type: functional
Plasmodium falciparum [11] = assay: Antiplasmodial activity against CQ-susceptible Plasmodium falciparum 3D7 assessed as inhibition of parasite growth measured after 48 hrs by SYBR Green 1 dye based fluorescence assay; assay type: functional, organism-based; details: 3D7, 48 h
[12] = Selectivity index, ratio of IC50 for cytotoxicity against human HepG2 cells to IC50 for antiplasmodial activity against Plasmodium falciparum 3D7 infected in human erythrocytes by HRP2-ELISA; assay type: toxicity, cell-based; details: read-out: Ratio IC50
[13] = Selectivity index, ratio of IC50 for human HFF cells to IC50 for antiplasmodial activity against Plasmodium falciparum 3D7 infected in human erythrocytes by HRP2-ELISA; assay type: toxicity, cell-based; details: read-out: Ratio IC50
[14] = Cytotoxicity against human THP-1 cells assessed as reduction in cell viability incubated for 72 hrs by MTT assay; assay type: toxicity, cell-based
[15] = Apparent permeability across apical to basolateral side in human Caco-2/TC7 cells assessed as drug recovery at 20 uM incubated for 2 hrs by LC-MS/MS analysis; assay type: ADME, cell-based, Caco2/TC7; details: read-out: Drug recovery
[16] = target: Voltage-gated inwardly rectifying potassium channel KCNH2 (Homo sapiens, UniProt Q12809); assay: Inhibition of hERG channel expressed in CHO cells at holding potential of -80 mV by whole cell patch clamp method; assay type: toxicity, cell-based
Voltage-gated inwardly rectifying potassium channel KCNH2, sequence (Q12809 whole entry): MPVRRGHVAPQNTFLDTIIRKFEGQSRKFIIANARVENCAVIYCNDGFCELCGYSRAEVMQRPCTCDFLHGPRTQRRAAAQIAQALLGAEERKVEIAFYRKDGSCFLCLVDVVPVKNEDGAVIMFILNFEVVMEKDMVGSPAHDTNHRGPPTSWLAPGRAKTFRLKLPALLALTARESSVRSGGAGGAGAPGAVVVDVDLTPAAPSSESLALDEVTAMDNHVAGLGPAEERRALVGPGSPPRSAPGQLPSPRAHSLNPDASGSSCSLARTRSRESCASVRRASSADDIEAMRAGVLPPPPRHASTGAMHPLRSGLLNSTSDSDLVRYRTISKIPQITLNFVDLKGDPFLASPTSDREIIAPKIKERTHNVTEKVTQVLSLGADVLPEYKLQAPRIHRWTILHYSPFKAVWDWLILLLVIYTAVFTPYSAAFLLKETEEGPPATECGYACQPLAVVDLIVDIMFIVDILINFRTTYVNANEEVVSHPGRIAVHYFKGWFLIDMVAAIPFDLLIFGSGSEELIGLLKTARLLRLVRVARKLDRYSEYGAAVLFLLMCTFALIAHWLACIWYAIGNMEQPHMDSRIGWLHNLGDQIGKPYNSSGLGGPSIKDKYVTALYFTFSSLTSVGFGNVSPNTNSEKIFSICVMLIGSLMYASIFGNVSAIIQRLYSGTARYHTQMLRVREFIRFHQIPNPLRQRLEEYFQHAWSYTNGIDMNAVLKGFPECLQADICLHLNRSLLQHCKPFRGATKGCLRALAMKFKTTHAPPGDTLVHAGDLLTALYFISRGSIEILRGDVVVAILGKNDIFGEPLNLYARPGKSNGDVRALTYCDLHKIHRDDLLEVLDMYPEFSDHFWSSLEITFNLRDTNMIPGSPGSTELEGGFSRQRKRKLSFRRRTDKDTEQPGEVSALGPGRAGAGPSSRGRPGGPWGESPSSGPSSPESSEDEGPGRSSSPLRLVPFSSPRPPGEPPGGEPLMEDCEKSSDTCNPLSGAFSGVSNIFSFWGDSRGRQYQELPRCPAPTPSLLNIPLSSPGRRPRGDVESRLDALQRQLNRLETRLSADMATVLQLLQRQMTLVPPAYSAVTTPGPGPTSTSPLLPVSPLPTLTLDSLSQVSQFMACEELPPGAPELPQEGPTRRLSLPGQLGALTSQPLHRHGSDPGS

[17] = Apparent permeability across apical to basolateral side in human Caco-2/TC7 cells at 20 uM incubated for 2 hrs by LC-MS/MS analysis; assay type: ADME, cell-based, Caco2/TC7

Compound	pIC50 (Plasmodium falciparum [1])	pIC50 (Plasmodium falciparum [2])	selectivity ratio [3]	selectivity ratio [4]	IC50 at 24 h [5] [µM]	Ratio IC50 (Plasmodium falciparum [6])	IC50 at 72 h [7] [µM]	pIC50 (Plasmodium falciparum [8])	IC50 at 72 h [9] [µM]	Ratio IC50 (Plasmodium falciparum [10])	pIC50 (Plasmodium falciparum [11])	selectivity ratio [12]	selectivity ratio [13]	IC50 at 72 h [14] [µM]	recovery at 2 h, 20 µM [15] [%]	pIC50 [16]	Papp A→B at 2 h, 20 µM [17] [×10⁻⁶ cm/s]
O[C@@H](CNCCCC(F)(F)F)c1cc(C(F)(F)F)nc2c(C(F)(F)F)cccc12	6.64	7.21	199	144	45.4	0.9	14.6	6.64	29.7	1	7.24	130	64	32.8			
O[C@@H](CNCCNC(c1ccccc1)c1ccccc1)c1cc(C(F)(F)F)nc2c(C(F)(F)F)cccc12	7.30	7.47	233	100	11.6	1.05	43.9	7.68	8.8	2.4	7.45	177	881	5			
CCCCCNC[C@@H](O)c1cc(C(F)(F)F)nc2c(C(F)(F)F)cccc12															99	5.06	11.4
O[C@@H](CNCC1CC1)c1cc(C(F)(F)F)nc2c(C(F)(F)F)cccc12	7.75	7.77	1420	693	25.4	1.4	48.4	7.82	6.6	1.2	7.64	369	2700	12.4			
OC[C@@H](Cc1ccccc1)NC[C@H](O)c1cc(C(F)(F)F)nc2c(C(F)(F)F)cccc12	6.97	7.27	250	73	26.6	0.7	37.4	7.20	16.8	1.7	7.44	158	351	7.8			
CCCCCCCNC[C@H](O)c1cc(C(F)(F)F)nc2c(C(F)(F)F)cccc12															90	< 4.52	0.5
O[C@H](CNCC1CC1)c1cc(C(F)(F)F)nc2c(C(F)(F)F)cccc12	7.89	8.39	2400	534	31	1	18.5	7.80	4.3	0.8	8.39	333	1430	6.9			
O[C@H](CNCCNC(c1ccccc1)c1ccccc1)c1cc(C(F)(F)F)nc2c(C(F)(F)F)cccc12	7.62	7.53	377	372	9	1.2	16.6	7.85	6.4	1.7	7.45	268	694	8.9			
COC[C@H](Cc1ccccc1)NC[C@H](O)c1cc(C(F)(F)F)nc2c(C(F)(F)F)cccc12	7.63	7.94	1620	728	37.6	1.5	36.7	7.81	9.6	1.5	7.76	414	1580	16.9			
OC[C@@H](Cc1ccccc1)NC[C@@H](O)c1cc(C(F)(F)F)nc2c(C(F)(F)F)cccc12 (single isomer, unassigned)	6.99	7.99	345	73	35.8	3.5	45.4	7.08	15.4	1.2	7.45	151	444	7.5			
OC[C@H](Cc1ccccc1)NC[C@H](O)c1cc(C(F)(F)F)nc2c(C(F)(F)F)cccc12 (single isomer, unassigned)	7.13	8.48	470	123	35.2	9.4	53.7	7.21	22.7	1.2	7.51	303	718	9.2			
O[C@H](CNCCCC(F)(F)F)c1cc(C(F)(F)F)nc2c(C(F)(F)F)cccc12	7.81	8.07	2560	> 8120	39.5	1.3	35.6	7.74	7.6	0.85	7.94	493	2310	> 125			
OC[C@H](Cc1ccccc1)NC[C@@H](O)c1cc(C(F)(F)F)nc2c(C(F)(F)F)cccc12	7.24	8.25	511	124	29.7	5.4	25.4	7.40	10.9	1.5	7.52	188	437	7.2			
O[C@H](CNCCN1CCN(C(c2ccccc2)c2ccccc2)CC1)c1cc(C(F)(F)F)nc2c(C(F)(F)F)cccc12	6.93	7.20	213	93	24.8	1.2	13.3	7.05	7	1.3	7.12	60	114	10.8			
